Experimental data published in patent publication US20230357179A1, “RAF KINASE INHIBITORS AND METHODS OF USE THEREOF” (Deciphera Pharmaceuticals, LLC, priority 2021, published 2023).

Columns and labels:
A-Raf kinase = biological target: T1, A-Raf kinase (Homo sapiens, UniProt P10398, Y301D/Y302D); test: Biochemical assay for A-Raf.1 (coupled pyruvate kinase/lactate dehydrogenase); conditions: read-out: ARAF.1 IC50
T1 construct: purchased Sigma
Protocol: Biochemical assay for A-Raf.1
(§1) Activity of A-Raf kinase (SEQ. ID NO. 1) was determined spectroscopically using a coupled pyruvate kinase/lactate dehydrogenase assay that continuously monitors the ATP hydrolysis-dependent oxidation of NADH (e.g., Schindler et al., Science, 2000, 289, 1938-1942). Assays were conducted in 384-well plates (100 μL final volume) using 5.55 nM A-Raf (Sigma), 1.5 units pyruvate kinase, 2.1 units lactate dehydrogenase, 1 mM phosphoenol pyruvate, 0.28 mM NADH, 30.1 nM MEK (SignalChem), and 1 mM ATP in assay buffer (100 mM Tris, pH 7.5, 15 mM MgCl2, 0.5 mM DTT, 0.1% octyl-glucoside, 0.002% (w/v) BSA, and 0.002% Triton X-100). Inhibition of A-Raf was measured by adding serial diluted test compound (final assay concentration of 1% DMSO). A decrease in absorption at 340 nm was monitored continuously for 6 h at 30° C. on a multi-mode microplate reader (BioTek). The reaction rate was calculated using the 4 to 5 h time frame. The reaction rate at each concentration of compound was converted to percent inhibition using controls (i.e., reaction with no test compound and reaction with a known inhibitor) and IC50 values were calculated by fitting a four-parameter sigmoidal curve to the data using Prism (GraphPad software).

B-Raf kinase = biological target: T2, B-Raf kinase (Homo sapiens, UniProt P15056); test: Biochemical assay for B-Raf.1 (coupled pyruvate kinase/lactate dehydrogenase); conditions: read-out: BRAF.1 IC50
T2 construct: GST (N); purchased Sigma
Protocol: Biochemical Assay for B-Raf.1
as §1, with “B-Raf” for “A-Raf”, “NO: 2)” for “NO. 1)”, “0.13” for “5.55”

C-Raf kinase = biological target: T3, C-Raf kinase (Homo sapiens, UniProt P04049, Y340D/Y341D); test: Biochemical assay for C-Raf.1 (coupled pyruvate kinase/lactate dehydrogenase); conditions: read-out: CRAF.1 IC50
T3 construct: Y340D,; GST (N); purchased Sigma
Protocol: Biochemical Assay for C-Raf.1
as §1, with “C-Raf” for “A-Raf”, “NO: 3)” for “NO. 1)”, “0.43” for “5.55”

B-Raf (V600E) kinase = biological target: T4, B-Raf (V600E) kinase (Homo sapiens, UniProt P15056, V600E); test: Biochemical assay for B-Raf (V600E).1 (coupled pyruvate kinase/lactate dehydrogenase); conditions: read-out: BRAF V600E.1 IC50
T4 construct: B-Raf (V600E) residues 416-766 with a; GST (N); purchased SignalChem
Protocol: Biochemical Assay for B-Raf (V600E).1
Activity of B-Raf (V600E) (SEQ. ID NO: 4) kinase was determined spectroscopically using a coupled pyruvate kinase/lactate dehydrogenase assay that continuously monitors the ATP hydrolysis-dependent oxidation of NADH (e.g., Schindler et al., Science, 2000, 289, 1938-1942). Assays were conducted in 384-well plates (100 μL final volume) using 0.03 nM B-Raf (SignalChem), 1.5 units pyruvate kinase, 2.1 units lactate dehydrogenase, 1 mM phosphoenol pyruvate, 0.28 mM NADH, 30.1 nM MEK (SignalChem), and 1 mM ATP in assay buffer (100 mM Tris, pH 7.5, 15 mM MgCl2, 0.5 mM DTT, 0.1% octyl-glucoside, 0.002% (w/v) BSA, and 0.002% Triton X-100). Inhibition of B-Raf (V600E) was measured by adding serial diluted test compound (final assay concentration of 1% DMSO). A decrease in absorption at 340 nm was monitored continuously for 6 h at 30° C. on a multi-mode microplate reader (BioTek). The reaction rate was calculated using the 3 to 4 h time frame. The reaction rate at each concentration of compound was converted to percent inhibition using controls (i.e., reaction with no test compound and reaction with a known inhibitor) and IC50 values were calculated by fitting a four-parameter sigmoidal curve to the data using Prism (GraphPad software).

Miapaca-2 cells = test: MiaPaca-2 cell proliferation assay (1), resazurin, 96-well; type: cell-based; conditions: Homo sapiens, MIA PaCa-2, inhibition of cell proliferation
Protocol: MiaPaca-2 Cell Proliferation Assay (1)
Miapaca-2 cells (catalog #CRL-1420) are obtained from the American Type Culture Collect (ATTC, Manassas, VA). Briefly, cells were grown in DMEM supplemented with 10% characterized fetal bovine serum (Invitrogen, Carlsbad, CA), 2.5% New Zealand sourced horse serum and 1% Penicillin/Streptomycin/L-Glutamine at 37° C., 5% CO2, and 95% humidity. Cells are expanded until reaching 70-95% confluency at which point they are subcultured or harvested for assay use. A serial dilution of test compound is dispensed into a 96-well black clear bottom plate in triplicate. Three thousand cells are added per well in 200 μL complete growth medium in the 96-well plate. Plates are incubated for 67-72 hours at 37° C., 5% CO2, and 95% humidity. At the end of the incubation, 40 μL of a 440 μM solution of resazurin (Sigma, St. Louis, MO) in PBS is added to each well of the plate and plates are incubated for an additional 5-6 hours at 37° C., 5% CO2, and 95% humidity. Plates are read on a Synergy2 or equivalent reader (Biotek, Winooski VT) using an excitation of 540 nm and an emission of 600 nm. Data is analyzed using Prism software (GraphPad, San Diego, CA) to calculate IC50 values.

A375 cells = test: A375 cell proliferation assay (1), resazurin, 96-well; type: cell-based; conditions: Homo sapiens, A-375, inhibition of cell proliferation
Protocol: A375 Cell Proliferation Assay (1)
A375 cells (catalog (#CRL-1619) are obtained from the American Type Culture Collect (ATTC, Manassas, VA). Briefly, cells were grown in DMEM High Glucose supplemented with 10% characterized fetal bovine serum (Invitrogen, Carlsbad, CA) and 1% Penicillin/Streptomycin/L-Glutamine at 37° C., 5% CO2, and 95% humidity. Cells are expanded until reaching 70-95% confluency at which point they are sub-cultured or harvested for assay use. A serial dilution of test compound is dispensed into a 96-well black clear bottom plate in triplicate. Two thousand five hundred cells are added per well in 200 μL complete growth medium in the 96-well plate. Plates are incubated for 67-72 hours at 37° C., 5% CO2, and 95% humidity. At the end of the incubation, 40 μL of a 440 μM solution of resazurin (Sigma, St. Louis, MO) in PBS is added to each well of the plate and plates are incubated for an additional 5-6 hours at 37° C., 5% CO2, and 95% humidity. Plates are read on a Synergy2 or equivalent reader (Biotek, Winooski VT) using an excitation of 540 nm and an emission of 600 nm. Data is analyzed using Prism software (GraphPad, San Diego, CA) to calculate IC50 values.

T3 sequence (P04049 307-648 Y340D/Y341D): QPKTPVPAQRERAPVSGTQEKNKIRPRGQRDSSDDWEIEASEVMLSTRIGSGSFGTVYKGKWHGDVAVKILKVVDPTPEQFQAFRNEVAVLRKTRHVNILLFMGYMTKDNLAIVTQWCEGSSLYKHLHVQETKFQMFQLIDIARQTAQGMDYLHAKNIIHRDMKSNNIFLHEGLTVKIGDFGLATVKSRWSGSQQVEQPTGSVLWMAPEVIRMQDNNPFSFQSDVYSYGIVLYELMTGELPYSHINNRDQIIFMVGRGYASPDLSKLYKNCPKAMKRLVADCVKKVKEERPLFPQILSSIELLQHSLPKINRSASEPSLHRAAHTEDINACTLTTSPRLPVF
T2 sequence (P15056 416-766): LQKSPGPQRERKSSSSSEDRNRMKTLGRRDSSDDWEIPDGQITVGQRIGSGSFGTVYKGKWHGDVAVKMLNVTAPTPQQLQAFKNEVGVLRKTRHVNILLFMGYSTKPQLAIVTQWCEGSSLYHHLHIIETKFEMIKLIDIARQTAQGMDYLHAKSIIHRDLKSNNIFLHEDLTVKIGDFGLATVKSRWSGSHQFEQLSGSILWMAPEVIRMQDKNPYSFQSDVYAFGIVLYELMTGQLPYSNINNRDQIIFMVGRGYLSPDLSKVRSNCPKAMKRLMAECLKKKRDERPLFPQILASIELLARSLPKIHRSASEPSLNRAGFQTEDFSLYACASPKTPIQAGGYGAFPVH
T4 sequence (P15056 416-766 V600E): as the sequence (P15056 416-766) above, with V185E counted along it
T1 sequence (P10398 with tags, fused parts or gaps Y301D/Y302D): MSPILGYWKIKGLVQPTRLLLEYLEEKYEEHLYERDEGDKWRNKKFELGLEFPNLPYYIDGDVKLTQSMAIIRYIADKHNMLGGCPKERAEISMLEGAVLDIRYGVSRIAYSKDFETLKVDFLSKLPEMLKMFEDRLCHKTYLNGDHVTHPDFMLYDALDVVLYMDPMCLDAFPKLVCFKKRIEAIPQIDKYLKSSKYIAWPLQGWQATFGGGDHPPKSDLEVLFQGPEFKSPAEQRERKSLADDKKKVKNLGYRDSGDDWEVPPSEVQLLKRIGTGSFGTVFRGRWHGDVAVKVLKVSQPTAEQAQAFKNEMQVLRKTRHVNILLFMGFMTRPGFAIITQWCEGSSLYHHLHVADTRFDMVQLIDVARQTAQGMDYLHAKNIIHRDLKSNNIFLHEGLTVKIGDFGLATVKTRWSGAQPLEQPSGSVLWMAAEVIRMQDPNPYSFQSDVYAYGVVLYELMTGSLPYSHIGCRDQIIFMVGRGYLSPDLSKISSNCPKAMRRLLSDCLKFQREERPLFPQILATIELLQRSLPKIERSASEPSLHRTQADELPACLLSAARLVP

Structure (SMILES)	IC50 (A-Raf kinase) [nM]	IC50 (B-Raf kinase) [nM]	IC50 (C-Raf kinase) [nM]	IC50 (B-Raf (V600E) kinase) [nM]	IC50 (Miapaca-2 cells) [nM]	IC50 (A375 cells) [nM]
Cc1ccc(NC(=O)Nc2cnn(C(C)(C)C)c2)cc1-c1cc(OCCO)nc(N2CCOCC2)c1 [Example 44]	> 1000	100 to 500	100 to 500	≤ 100	1000 to 10000	–
Cc1ccc(NC(=O)Nc2cnn(CC(F)(F)F)c2)cc1-c1cc(OCCO)nc(N2CCOCC2)c1 [Example 45]	> 1000	> 1000	100 to 500	≤ 100	1000 to 10000	–
CC(=O)Nc1cc(-c2cc(-c3cc(NC(=O)NCCC(C)(C)C(F)(F)F)c(F)cc3C)cc(C3CC3)n2)ccn1 [Example 56]	> 1000	≤ 100	≤ 100	≤ 100	–	500 to 1000
Cc1cc(F)c(NC(=O)NC[C@H]2CCO2)cc1-c1cc(OCCO)nc(-c2ccnc3[nH]ncc23)c1 [Example 93]	> 1000	> 1000	> 1000	> 1000	–	1000 to 10000
Cc1cc(F)c(NC(=O)N2CCC(C)(C#N)C2)cc1-c1cc(OCCO)nc(-c2ccnc3[nH]ncc23)c1 (stereo not shown) [Example 95]	> 1000	500 to 1000	500 to 1000	≤ 100	–	1000 to 10000
CCNC(=O)Nc1cc(-c2cc(OCCO)nc(-c3ccnc(NC(=O)C4CC4)c3)c2)c(C)cc1F [Example 98]	> 1000	100 to 500	≤ 100	≤ 100	–	1000 to 10000
COC1(CCNC(=O)Nc2cc(-c3ccnc(-c4ccnc(NC(=O)C5CC5)c4)c3)c(C)cc2F)CC1 [Example 116]	100 to 500	≤ 100	≤ 100	≤ 100	–	1000 to 10000
COC(=O)Nc1cc(-c2cc(-c3cc(NC(=O)NCCC4CN(C)C4)cnc3C)cc(OCCO)n2)ccn1 [Example 183]	> 1000	> 1000	> 1000	> 1000	–	1000 to 10000
